Test results as given in US10875830B2, “Method of treatment” (priority 2016, dated 2020).
Read-outs that look alike come from different tables or passages of the source.

Assays:
PqsR = target: T1, PqsR (Pseudomonas aeruginosa, UniProt Q9I4X0); experiment: PQS-dependent pqsA::lux expression in AQ-non producing PAO1-L ΔpqsA (PqsR antagonism); format: cell-based
T1 construct: endogenous in cells; host or cells: P. aeruginosa PAO1-L ΔpqsA, chromosomal pqsA::lux fusion
Text: The inhibitory action of 4-(4-chlorophenyl)-5-methylene-pyrrol-2-one (Ref. 488) may involve inhibition of AQ biosynthesis or 4-(4-chlorophenyl)-5-methylene-pyrrol-2-one (Ref. 488) may behave like an antagonist and block the PQS receptor, PqsR. […] Experiments were therefore designed to determine the nature and degree of 4-(4-chlorophenyl)-5-methylene-pyrrol-2-one (Ref. 488) inhibitory activity.
By using the AQ-non producing P. aeruginosa strain PAO1-L ΔpqsA, pqsA::lux, the EC50 value for the native PqsR agonist, PQS was calculated as ˜2 μM (Ilangovan et al. 2013).
The experiment shown in FIG. 8 was then repeated using 4-(4-chlorophenyl)-5-methylene-pyrrol-2-one (Ref. 488) concentrations of 0, 50, 100 and 200 μM.
A partial agonist is a molecule that can bind to and activate a receptor resulting in a non-complete response compared with a full agonist. […] This contrasts with its activity as an antagonist in the presence of 10 or 40 μM PQS.

[1] = system: P. aeruginosa PAO1 pqsA::lux; experiment: pqsA::lux promoter fusion biosensor in P. aeruginosa PAO1-L (AQ-dependent quorum sensing); format: cell-based, Pseudomonas aeruginosa; conditions: for IC50: Pseudomonas aeruginosa, PAO1, read-out: IC50, pqsA::lux expression; for inhibition of light output / pqsA expression at high concentrations: FIG. 6 and 7
Method: The expression of rhl and las AHL- and the pqsA AQ-synthase genes was evaluated using lux-based lasl (FIG. 1), rhll (FIG. 2) and pqsA (FIG. 3) chromosomally integrated promoter fusions. Luminescence was quantified as a function of bacterial growth. The applicant further determined that none of the lactams is growth inhibitory at 100 μM using a large number of strains (figure not shown).
To determine the relative inhibitory activities (IC50s) of 4-(4-chlorophenyl)-5-methylene-pyrrol-2-one (Ref. 488) and 5-methylene-4-(p-tolyl)pyrrol-2-one (Ref. 491), dose response curves were constructed using the same biosensor strain (P. aeruginosa PAO1 pqsA::lux; Fletcher et al, 2007; Ilangovan et al 2013). This strain produces light in response to the endogenous production of AQs such as PQS and HHQ.

[2] = system: P. aeruginosa strain PAO1-L; experiment: pyocyanin production by PAO1-L, visual assessment; format: cell-based, Pseudomonas aeruginosa; conditions: 100 μM (vial 2), 8 h at 37° C., qualitative
Text: Pyocyanin is a blue redox-active secondary metabolite and a putative signalling molecule in P. aeruginosa (Jayaseelan et al, 2014). The pyocyanin biosynthetic (phz) genes are regulated by QS and in part via the transcriptional regulator PqsR acting through PqsE (Rampioni et al 2011).
Although qualitative, this observation offers further confirmation of the inhibitory effects of lactam 4-(4-chlorophenyl)-5-methylene-pyrrol-2-one (Ref. 488) on AQ-dependent QS.

[3] = system: PAO1-N ΔpqsAHR pqsA'::lux; experiment: PqsR-independent pqsA'::lux expression in PAO1-N ΔpqsAHR; format: cell-based, Pseudomonas aeruginosa; conditions: presence or absence of 40 μM PQS, FIG. 11
Text: PQS is capable of weakly activating pqsA in the absence of PqsR via a mechanism that is not fully understood but appears to depend on the iron chelating properties of PQS. The aim of this experiment was to clarify whether lactam 4-(4-chlorophenyl)-5-methylene-pyrrol-2-one (Ref. 488) is also inhibitory for pqsA expression via the PqsR independent pathway. As previously described, the pqsA′::lux biosensor based on the triple mutant PAO1-N ΔpqsAHR cannot produce AQs and lacks pqsR but still responds to exogenous PQS. This response is however much weaker that the PqsR-dependent response.

[4] = system: P. aeruginosa PA14 pqsA'::lux; experiment: pqsA'::lux fusion in P. aeruginosa PA14; format: cell-based; conditions: Pseudomonas aeruginosa, PA14, read-out: IC50, pqsA'::lux expression in PA14
Text: To investigate the inhibitory effect of 4-(4-chlorophenyl)-5-methylene-pyrrol-2-one (Ref. 488) on P. aeruginosa PA14, a pqsA′::lux fusion was introduced onto the chromosome.

PqsABCD = experiment: AQ (HHQ) biosynthesis by PqsABCD, TLC with biosensor overlay; format: cell-based, Pseudomonas aeruginosa; conditions: 200 μM, PAO1-N ΔpqsAHR pBBR-pqsABCD, overnight in LB
Text: To determine whether 4-(4-chlorophenyl)-5-methylene-pyrrol-2-one (Ref. 488) is capable of inhibiting the enzymes (PqsABCD) involved in AQ biosynthesis, the P. aeruginosa PAO1-N ΔpqsAHR was exploited. This mutant cannot produce AQs because the genes coding for the key biosynthetic enzymes (PqsA and PqsH) and regulation (PqsR) have been deleted. To restore AQ production in a PqsR-independent manner in PAO1-N ΔpqsA, the pqsABCD genes were introduced on a plasmid (pBBR pqsABCD; Niewerth et al. 2011). P. aeruginosa PAO1-N ΔpqsAHR and P. aeruginosa PAO1-N ΔpqsAHR pBBR pqsABCD were both incubated overnight in LB with and without 4-(4-chlorophenyl)-5-methylene-pyrrol-2-one (Ref. 488) (200 μM), resuspended to an OD600 1.0. The cultures were extracted with acidified ethyl acetate, the organic phase removed, dried and resuspended in methanol subjected to thin layer chromatography (TLC).
After chromatography using a dichloromethane-methanol mobile phase, the TLC plates were overlaid with a thin agar layer containing the AQ biosensor strain PAO1-L ΔpqsA CTX::pqsA′-luxCDABE (Fletcher et al. 2007) incubated and examined for reporter output (FIG. 13). […] The biosensor strain produces light (FIG. 13 panel C) and pyocyanin (FIG. 13 panel B) in response to AQs that bind to PqsR and activate the pqsA promoter.

T1 sequence (Q9I4X0 whole entry, the tested form may be a part): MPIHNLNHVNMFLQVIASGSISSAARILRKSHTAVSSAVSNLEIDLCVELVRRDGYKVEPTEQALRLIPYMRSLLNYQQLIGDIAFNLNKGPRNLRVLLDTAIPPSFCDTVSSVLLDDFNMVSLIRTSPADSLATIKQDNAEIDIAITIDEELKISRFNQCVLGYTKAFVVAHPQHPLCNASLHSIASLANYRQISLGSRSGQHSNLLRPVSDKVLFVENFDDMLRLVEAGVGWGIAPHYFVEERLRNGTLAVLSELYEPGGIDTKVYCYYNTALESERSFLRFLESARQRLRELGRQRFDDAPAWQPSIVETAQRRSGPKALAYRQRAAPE

Structure (SMILES) | EC50 (PqsR; EC50 of PQS for pqsA::lux expression in the presence of lactam 488, fixed concentration of 488 (215 μM), range of PQS concentrations, FIG. 8) | EC50 (PqsR; EC50 of PQS for pqsA::lux expression, PQS alone, PAO1-L ΔpqsA pqsA::lux) | EC50 (PqsR; PQS alone, PAO1-L ΔpqsA pqsA::lux, read-out: EC50 of PQS for pqsA::lux expression) | IC50 [1] | inhibition of light output / pqsA expression at high concentrations [1] | inhibition of the PqsR-dependent pqsA::lux promoter fusion (screen) ([1]; lactams at 100 μM, FIG. 3) | pyocyanin production [2] | mode of action on PQS-dependent pqsA::lux expression (PqsR; 488 at 0, 50, 100 and 200 μM, range of PQS, FIG. 9) | restoration of light output by PQS in the presence of the lactam (PqsR; 488 at 50, 100, 200 μM, FIG. 9) | partial agonist activity (activation of pqsA expression) (PqsR; concentrations up to 800 μM, without PQS, FIG. 10) | fold increase of PQS EC50 caused by the lactam (PqsR; fixed concentration of 488 (215 μM)) | effect on the PqsR-independent expression of pqsA [3] | IC50 [4] | inhibition of HHQ biosynthesis (PqsABCD)
CCCCCCCc1[nH]c2ccccc2c(=O)c1O [PQS, 2-heptyl-3-hydroxy-4-(1H)-quinolone, reference compound] | 31 µM | ~2 µM | 2 µM | – | – | – | – | – | – | – | – | – | – | –
C=C1NC(=O)C=C1c1ccc(C)cc1 [Lactam 491, 5-methylene-4-(p-tolyl)pyrrol-2-one] | – | – | – | 44 µM | did not inhibit pqsA expression as strongly | – | – | – | – | – | – | – | – | –
C=C1NC(=O)C=C1c1ccc(Cl)cc1 [Lactam 488, 4-(4-chlorophenyl)-5-methylene-pyrrol-2-one] | – | – | – | 22 µM | completely inhibited light output | most potent inhibitor | inhibition of pyocyanin production | competitive antagonist | fully restoring light output in the presence of 50 μM but not 100 μM or 200 μM | no partial agonist activity | ~15 fold | small inhibitory effect | 17.9 µM | did not inhibit HHQ biosynthesis
